From ChEMBL document CHEMBL1201862, “PubChem BioAssay data set” (2004)
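How tested: cells in 96-well plates exposed to compound for 48 hours at five concentrations. GI50: concentration for 50% inhibition of growth.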 The source made the active and inactive calls. Cut-off read from the data, not from the text of the source: active = GI50 up to about 1.1 µM and inactive = higher.

Experiments:
Experiment in all cases: inhibition of tumour cell growth, NCI panel, 48 h
DMS-114 = test system: DMS-114
LXFL 529 = test system: LXFL 529
KM-20L2 = test system: KM-20L2
XF498 = test system: XF498
HOP-18 = test system: HOP-18
M19-MEL = test system: M19-MEL
RXF 631 = test system: RXF 631
SNB-78 = test system: SNB-78

Measured: GI50

O=C1c2ccccc2C2C1N2C(=O)C(F)(F)F (stereo unspecified)
inactive: DMS-114 39.9 µM | LXFL 529 > 100 µM | KM-20L2 > 100 µM | XF498 > 100 µM | HOP-18 > 100 µM | M19-MEL > 100 µM | RXF 631 94.6 µM

CCOC(OC1=CCCC1)C(C)[Se]c1ccccc1 (stereo unspecified)
inactive: DMS-114 6.81 µM | LXFL 529 35.7 µM | KM-20L2 29.4 µM | XF498 20.4 µM | HOP-18 28.2 µM | M19-MEL 24.4 µM | SNB-78 > 100 µM | RXF 631 16.5 µM

CCOC(=O)NC(=O)c1cn(CCCCCCCCCCC(=O)N2CCN(CCn3cc(C(=O)NC(=O)OCC)c(=O)[nH]c3=O)CC2)c(=O)[nH]c1=O
inactive: DMS-114 > 100 µM | LXFL 529 > 100 µM | KM-20L2 > 100 µM | XF498 > 100 µM | HOP-18 > 100 µM | M19-MEL > 100 µM | SNB-78 > 100 µM | RXF 631 > 100 µM

CCOC(=O)C1=C(OC(OCC)C(CC)[Se]c2ccccc2)CCCC1 (stereo unspecified)
inactive: LXFL 529 20.5 µM | KM-20L2 19.8 µM | XF498 20 µM | HOP-18 29.7 µM | M19-MEL 15.6 µM | SNB-78 22.3 µM | RXF 631 10.2 µM

CC(=O)O/N=C/c1ncccc1OC(C)=O
inactive: DMS-114 > 100 µM | LXFL 529 > 100 µM | KM-20L2 > 100 µM | XF498 > 100 µM | HOP-18 > 100 µM | M19-MEL > 100 µM | RXF 631 > 100 µM

CC1=C(c2ccccc2)CON(c2ccccc2)C1
inactive: DMS-114 31 µM | LXFL 529 29.1 µM | KM-20L2 31.4 µM | XF498 40.6 µM | M19-MEL 38.7 µM | SNB-78 39.9 µM | RXF 631 24.8 µM

C1=CC=C2NCCC/N=C3/C=CC=CC=C3NCCC/N=C\2C=C1
inactive: DMS-114 > 100 µM | LXFL 529 > 100 µM | KM-20L2 > 100 µM | XF498 > 100 µM | M19-MEL > 100 µM | SNB-78 > 100 µM | RXF 631 > 100 µM

COC(=O)[C@@H]1C(=O)O[C@@H](c2ccc(OC)c(OC)c2OC)[C@@H]1C(=O)OC.COC(=O)[C@H]1C(=O)O[C@@H](c2ccc(OC)c(OC)c2OC)[C@@H]1C(=O)OC
inactive: DMS-114 > 100 µM | LXFL 529 > 100 µM | KM-20L2 > 100 µM | XF498 > 100 µM | M19-MEL > 100 µM | SNB-78 > 100 µM | RXF 631 > 100 µM

COc1cc2nc(Sc3c([N+](=O)[O-])ncn3C)[nH]c2cc1OC
inactive: DMS-114 11.6 µM | LXFL 529 12.4 µM | KM-20L2 33.6 µM | XF498 11 µM | HOP-18 > 100 µM | M19-MEL 33.1 µM | SNB-78 34.8 µM | RXF 631 1.74 µM
